Patent US5594024A, “Centrally actig substituted phenylazacycloalkanes” (priority 1995, dated 1997)
Entries after “also recorded” stand apart in the source; their conditions may differ.

Columns and labels:
[1] = tested on: central dopamine receptors; assay: Locomotor activity and DA synthesis in reserpinized rats; format: in vivo, rat; conditions: reserpinized rats
DA receptor [2] = assay: DA metabolism (DOPAC, HVA levels) in habituated rats; format: in vivo, rat (male Sprague-Dawley); conditions: Rattus norvegicus, 1 h, read-out: DOPAC limbic
Method in brief: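 Rats habituated to motility meters 60 min, no NSD given; killed one hour after drug administration (injection volume 5 mL/kg). Striatal and limbic DOPAC, HVA and 5-HIAA measured by HPLC-EC, expressed as % of controls (means ±SEM).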

DA receptor [3] = assay: DOPA accumulation (DA synthesis rate) in non-pretreated rats after NSD 1015; conditions: for duration of the increase in brain DOPA accumulation: 50 μmol/kg
Experimental: injected with NSD 1015 (100 mg/kg, i.p.) and then killed 30 min later.
In-vivo determination of rat brain monoamine metabolites and tyrosine and tryptophan hydroxylation (biochemically monitored DA and 5-HT receptor agonist or antagonist activity).
The compounds under evaluation were tested biochemically for central DA and 5-HT receptor (pre- and/or postsynaptic) stimulating and/or blocking activity. The concept of this biochemical screening method is that a DA or 5-HT receptor agonist will stimulate the receptor and through regulatory negative feed-back systems induce a decline in tyrosine or tryptophan hydroxylating activity, respectively, and a subsequent reduction in the synthesis rate of DA and 5-HT in the presynaptic neuron. […] The biochemical experiments and the determinations of Dopa and 5-HTP by means of HPLC with electrochemical detection were performed. The antagonistic effects were seen as increases in the synthesis rate (n=4), as a result of the positive feed-back upregulation of synthesis. The effects on Dopa and 5-HTP accumulation are expressed as % of controls, which were: DOPA limbic system=447±23 ng/g and DOPA striatum=1045±47ng/g, 5-HTP limbic region 241±2 ng/g (Table 2).
(§1) Animals used in the biochemical and motor activity experiments were male rats of the Sprague-Dawley strain (ALAB, Sollentuna, Sweden), weighing 200-300 g. The rats were kept 5 per cage with free access to water and food (except for the starved animals for the experiments with per oral administration, who were only allowed water the last 18 hours before testing), at least one week from arrival until used in the experiments.
(§2) All substances to be tested were dissolved in saline immediately before use, occasionally with the addition of a few drops of glacial acetic acid and/or moderate heating in order to obtain complete dissolution. Injection volumes were 5 mL/kg.
Analysis of variance (ANOVA) followed by Fischer's test was used for the statistical calculations. P values less than 0.05 were regarded statistically significant.
DOPA accumulation (DA synthesis rate) in non-pretreated rats (Table 2). After the locomotor activity session (see Table 2, above) the rats were injected with the decarboxylase inhibitor NSD 1015 (100 mg/kg, sc) and killed 30 minutes later. The DOPA accumulation in the DA -rich limbic and striatal and the NE-rich cortical (mainly hemispheres) brain areas were expressed as % of saline treated controls.
DOPA accumulation, time course after s.c. and p.o. administration (Table 2). […] NSD 1015 (100 mg/kg, sc) was injected 30 minutes before death. The data are expressed as % of saline treated controls.

5-HT receptor [4] = assay: 5-HTP accumulation (5-HT synthesis rate) in non-pretreated rats after NSD 1015; format: in vivo, rat (male Sprague-Dawley)
Experimental: observations are commented to the right. After the session the rats were
accumulation in the NErich cortical regions and 5HTP in the limbic
Injection volumes were 5 mL/kg.

5-HT receptor [5] = assay: 5-HT metabolism (5-HIAA levels) in habituated rats; format: in vivo, rat (male Sprague-Dawley); conditions: Table 3
Experimental: Footnotes Table 3. The rats were habituated to the motility meters 60 min
SEM. The rats were immediately killed after the activity session, striata
and limbic levels of DOPAC and 5HIAA were measured by means of HPLCEC. *p
In the experiments with habituated rats no NSD was administered and the animals were killed one hour after drug administration. […] The levels were expressed as % of controls (DOPAC and 5-HIAA see Table 3). The in vivo brain microdialysis experiments were performed in conscious rats as described by Waters et al., Eur. J. Pharm., 187, 425-34 (1990).
Injection volumes were 5 mL/kg. […]

non-pretreated rats = assay: Locomotor activity and gross behavior in non-habituated (non-pretreated) rats; conditions: for Gross Behavioral Observations: non-pretreated rats
Source text: Immediately after drug administration, the rats were placed in the test cages (one rat/cage) and put into the motility meters. […] Observations of gross behavior were made throughout the activity sessions through semi-transparent mirrors.
as §1, §2
Analysis of variance (ANOVA) followed by Fischer's test was used for the statistical calculations.
In vivo behavioral data was obtained with rats injected with drug and 5 minutes later put into the motility chambers for the first time. The motor activity was measured for the subsequent 30 minutes (accumulated counts/30 minutes) and expressed as % of saline treated controls.

dopamine autoreceptors = assay: GBL-model (DA synthesis rate; presynaptic dopamine autoreceptors); format: in vivo, rat
Source text: The effects on DOPA accumulation in the GBL-model is considered to reflect an event at the presynaptic dopamine autoreceptors (for further details, see Svensson et al., Nunyn-Schmiedeberg's Arch. Pharm., 334, 234(1986)).

## CCCN1CCC[C@@H](c2cccc(C#N)c2)C1 [S-(-)-34, S-(-)-3-(3-Cyanophenyl-N-n-propyl)piperidine]
[1]
  DA synthesis rate / DOPA accumulation in reserpinized rats (in words): failed to affect the DOPA accumulation in reserpinized
DA receptor [2]; po
  response vs control in vivo at 25 µmol/kg: 138 ± 13%
DA receptor [2]; sc
  response vs control in vivo at 100 µmol/kg: 226 ± 11%
DA receptor [3]; po
  duration of the increase in brain DOPA accumulation: 1.5 to 2.5 h
DA receptor [3]; s.c.
  duration of the increase in brain DOPA accumulation: 2.5 to 4.5 h
  cortical DOPA formation (in words): slightly, but statistically significantly increased; also recorded: slight increase in cortical DOPA accumulation
DA receptor [3]; 3.1-200 μmol/kg, s.c.
  DOPA accumulation in limbic and striatal brain regions (in words): elevated in the limbic (limb.) and striatal (stri) brain regions with a maximal response equal to that observed for classical neuroleptics such as haloperidol
DA receptor [3]; 50 sc
  DOPA acc Cortex: 155 ± 9 % of saline controls
  DOPA acc Stratium: 285 ± 3 % of saline controls
DA receptor [3]; 100 sc
  DOPA acc Cortex: 158 ± 8 % of saline controls
  DOPA acc Stratium: 268 ± 16 % of saline controls
DA receptor [3]; 200 sc
  DOPA acc Cortex: 148 ± 16 % of saline controls
  DOPA acc Stratium: 294 ± 26 % of saline controls
DA receptor [3]; from DOPA accumulation in the striatum after sc and po administration
  estimated availability: 50%
5-HT receptor [4]; 25 μmol/kg, sc and above
  brain 5-HTP formation, elevation: 45-50%
5-HT receptor [4]; 50 sc
  5-HTP acc Limbic Region: 144 ± 6 % of saline controls
5-HT receptor [4]; 100 sc
  5-HTP acc Limbic Region: 148 ± 10 % of saline controls
5-HT receptor [4]; 200 sc
  5-HTP acc Limbic Region: 80 ± 12 % of saline controls
5-HT receptor [4]; non-pretreated rats
  brain 5-HTP levels (in words): elevated brain 5-HTP levels
5-HT receptor [5]
  brain 5-HIAA levels (in words): no statistical significant effects; also recorded: No effects on the brain levels of 5-HIAA; also recorded: failed to affect brain levels of 5-HIAA
non-pretreated rats; 25-200 μmol/kg, sc, dose-dependent monophasic, non-habituated rats
  increase in motor activity, maximal effect: +60%
non-pretreated rats; 50 sc
  Gross Behavioral Observations: Activation
non-pretreated rats; 100 sc
  Gross Behavioral Observations: Activation
non-pretreated rats; 200 sc
  Gross Behavioral Observations: No change
Dopamine autoreceptors; 100 μmol/kg, sc
  blockade of the apomorphine effect in the GBL-model: only a partial blockade
Dopamine autoreceptors; 200 μmol/kg, sc
  effect per se in the GBL-model: inactive per se
Dopamine autoreceptors; 200 μmol/kg, sc, 40 minutes
  blockade of the apomorphine effect in the GBL-model: blocked the effect of apomorphine
Dopamine autoreceptors; rat, in vivo
  blockade of apomorphine in the GBL-model (in words): blocks apomorphine in the GBL-model
